The source of these data is patent US20220251079A1, “BENZO[B][1,8]NAPHTHYRIDINE ACETIC ACID DERIVATIVES AND METHODS OF USE” (STINGTHERA, INC., priority 2019, published 2022).

The target in assay [1] is T1, human STING protein (140-379) (Homo sapiens, UniProt Q86WV6, H232R).
T1 construct: 6XHIS-SUMO-hSTING (140-379); made in house; host or cells: BL-21(DE3) E. coli, pET vector
Kind of assay: Radiometric filtration binding competition assay (WT_FBA_HIS-SUMO-hSWAT). As to conditions: read-out: WT-hSWAT IC50. The procedure: A radiometric filtration binding competition assay was performed to quantify the binding affinity of compounds of the present application for the human or mouse STING protein, or associated HAQ human isoform. The competition format filtration binding assay detects the ability of small molecule compounds from binding to and inhibiting the subsequent binding of a tritiated [H3] […] The resulting dose response was fit by non-linear regression to determine an IC50 value, from which a Ki value for each compound was extrapolated.
Briefly, the recombinant C-terminal ligand binding domain of the human STING protein (140-379) or mouse STING protein (139-328) [0.5 μM] was incubated in the presence of a compound of the present application (8 point, 2 fold dilution starting at 300 μM) for 30 min or under control conditions. […] The resulting complexes were then filtered, dried, and scintillation fluid was added and the remaining radio signal was measured to determine the degree of compound ligand inhibition. This assay format was optimized for both the WT and HAQ isoforms of the human protein and the mouse orthologue protein.
Parameters optimized: • a. Form of protein: 6×HIS-SUMO tag or untagged • b. Concentration of target protein: Minimum concentration that achieved >80 max signal • c. Assay DMSO concentration: 10%-0.1% • d. Assay Buffer: Base (Tris or phosphate), Salt concentration, +/−Tween (0.1-2%) • e. […] Probe Concentration: Minimum concentration that achieved max assay window • g. Assay Format: Scintillation Proximity Bead or Filtration Binding Plate • h. Assay Plate: 384 vs 96 well format • i. Assay incubation times for successive incubation steps
WT-hSWAT: WT_FBA_HIS-SUMO-hSWAT IC50 (μM) (“WT”=Wild-type); and WT-mSWAT: MOUSE_FBA_HIS-SUMO-mSWAT C50 (μM) which is the mouse isoform of STING protein.

Assay [2] addresses T2, hSTING-R232 (Homo sapiens, UniProt Q86WV6, H232R).
T2 construct: recombinant mouse or human STING protein (aa140-379); 6xHis-SUMO elsewhere) (cleaved yes); made in house
Nature of the assay: STING Differential Scanning Fluorimetry (DSF) assay, human. The format is binding. The conditions noted are these: human STING R232-WT, 5 μM protein. The method, then: A STING DSF assay was performed to determine protein thermostability shift in response to small molecule ligand binding. A STING thermostability shift assay based on differential scanning fluorimetry was used to measure (1) the net shift in melting temperature (ΔTm)between the apo and ligand-bound states of the STING protein and (2) the concentration of the thermal denaturation transition (FC50) as a surrogate measure of binding affinity (Kd). Briefly, recombinant mouse or human STING protein (aa140-379) comprising the C-terminal binding domain (R232-WT) were purified by affinity chromatography and further processed to remove the purification tag, followed by gel filtration to achieve purity >95%. Protein in assay buffer was transferred to a 384 well plate and incubated with the hydrophobic fluorescent dye SYBR Orange. A temperature ramp was applied to the plate and the resulting dye fluorescence was plotted as a function of temperature. The first derivative of this function (dF/dT) was then used to extrapolate the melting temperature of the protein at various concentrations of compound and determine the thermal denaturation profile of a protein/compound complex.
2. 5 μM purified Target STING Protein
4. Buffer: 100 mM NaCl, 30 mM HEPES, pH 7.5
5. Thermal Ramp: 0.5° C./min
7. 11 point, 2 fold dilution, duplicate, 300 μM high concentrations
A general note: In DSF a fluorescence change marks the thermal transition of the protein.

Assay [3] concerns the target T3, STING protein (Homo sapiens, UniProt Q86WV6, H232R).
T3 construct: host or cells: THP-1 dual reporter cells, TMEM173 modified from HAQ to R232 (THP1-dual-KI R232)
Kind of assay: Cell based reporter assay of IRF activation (THP1-dual-KI R232, IRF luciferase). The conditions noted are these: THP-1; read-out: THP1-dual-KI R232_IRF(Luciferase)_Activity Maximum measured (%). An excerpt:
Cell reporter assays were developed to measure the ability of compounds of the application to activate the STING protein and activate both IRF/IFN and the NFkB signaling pathways in the myeloid derived cell line THP-1, which is commercially available from several suppliers. Briefly, THP-1 monocytes were transfected and selected for stable integration of 2 reporter constructs. Clones incorporating stably integrated vectors were further selected by antibiotic resistance to blastocidin and zeocin. The reporter constructs included: (1) firefly luciferase reporter gene under the control of an ISG54 promoter fused to five interferon (IFN)-stimulated response elements to measure IRF transcription factor binding activity and (2) secreted embryonic alkaline phosphatase reporter gene under transcription control of an IFN-beta minimal promoter fused to 5 copies of the NFkB consensus transcriptional response element and 3 copies of the c-Rel binding site.
The resulting THP-1 cell line was further modified to incorporate 3 amino acid point mutations (H71R A230G Q293R). This modification of the native TMEM173 gene in THP-1 cells (HAQ) was designed to produce a cell reporter that expressed the most common allelic variant in the human population (THP-1 R232, available from InvivoGen). Alternatively, the TMEM173 gene was knocked out to provide a congenic control to counter-screen for compound activation that was independent of the STING protein (THP-1 STING KO).
Once cell lines were established, reporter assay protocols were developed and optimized to screen small molecule compounds for agonist activity. Assay optimization for efficacy and Z′ value included titration of the following parameters:
1. No pre-activation with PMA
2. […]cells/well in 96 well plate format
7. Cell Titer Glo reagent (Promega) following supermatant removal
9. 8 point, 2 fold, duplicate starting at 150 μM PP28T
On the technique in general: Reporter assays use an easily measured gene product as a stand-in for the process of interest.

A value given as a limit tells only on which side of the number the result lay.

T3 sequence (Q86WV6 whole entry H232R): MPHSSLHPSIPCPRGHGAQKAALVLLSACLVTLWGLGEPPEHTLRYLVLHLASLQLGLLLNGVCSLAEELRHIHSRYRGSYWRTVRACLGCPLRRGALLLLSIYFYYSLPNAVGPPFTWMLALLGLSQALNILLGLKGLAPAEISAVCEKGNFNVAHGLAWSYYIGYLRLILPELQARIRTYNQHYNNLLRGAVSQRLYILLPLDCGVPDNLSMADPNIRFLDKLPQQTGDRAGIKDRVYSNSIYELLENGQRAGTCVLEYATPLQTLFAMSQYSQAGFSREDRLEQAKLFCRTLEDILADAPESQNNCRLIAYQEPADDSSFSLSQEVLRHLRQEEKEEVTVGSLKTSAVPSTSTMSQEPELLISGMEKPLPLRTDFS
T1 sequence (Q86WV6 140-379 H232R): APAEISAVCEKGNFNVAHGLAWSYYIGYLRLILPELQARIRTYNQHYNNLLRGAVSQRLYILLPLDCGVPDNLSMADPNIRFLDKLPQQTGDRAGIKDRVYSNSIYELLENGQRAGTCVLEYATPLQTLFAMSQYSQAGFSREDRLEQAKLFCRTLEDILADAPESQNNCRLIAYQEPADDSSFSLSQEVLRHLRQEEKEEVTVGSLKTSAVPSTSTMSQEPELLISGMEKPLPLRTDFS
T2 sequence (Q86WV6 140-379 H232R): as above

On to `COc1ccc2c(=O)c3ccc(Cl)c(N(C)C)c3n(CC(=O)O)c2n1` [Compound 21, 2-(8-chloro-9-(dimethylamino)-2-methoxy-5-oxobenzo[b][1,8]naphthyridin-10(5H)-yl) acetic acid], for which the IC50 in assay [1] is 20 to 100 µM. Besides, the “WT_DSF_hSWAT Tm Shift (° C.)” value in assay [2] is listed as “C (“C” = 2-7° C.)”. The Emax in assay [3] was more than 50%.
Consider `CSc1c(Cl)ccc2c(=O)c3ccc(N(C)C)nc3n(CC(=O)O)c12` [Compound 22, sodium 2-(8-chloro-2-(dimethylamino)-9-(methylthio)-5-oxobenzo[b][1,8]naphthyridin-10(5H)-yl)acetate], for which, in assay [1], the concentration for half-maximal inhibition (IC50) was in the range of 20 to 100 µM. Also, the “WT_DSF_hSWAT Tm Shift (° C.)” value in assay [2] is given as “D (“D” > 7° C.)”. Moreover, in assay [3], the Emax was more than 50%.
For `CCOc1c(Cl)ccc2c(=O)c3ccc(N(C)C)nc3n(CC(=O)O)c12` [Compound 23, sodium 2-(8-chloro-2-(dimethylamino)-9-ethoxy-5-oxobenzo[b][1,8]naphthyridin-10(5H)-yl)acetate], in that order: 100 to 300 µM, “C (“C” = 2-7° C.)” and more than 50%.
For `CSc1c(Cl)ccc2c(=O)c3ccc(C(C)(C)C#N)nc3n(CC(=O)O)c12` [Compound 24, sodium 2-(8-chloro-2-(2-cyanopropan-2-yl)-9-(methylthio)-5-oxobenzo[b][1,8]naphthyridin-10(5H)-yl)acetate], in that order: 20 to 100 µM, “D (“D” > 7° C.)” and more than 50%.
For `CCOc1c(Cl)ccc2c(=O)c3ccc(C(C)(C)C#N)nc3n(CC(=O)O)c12` [Compound 25, sodium 2-(8-chloro-2-(2-cyanopropan-2-yl)-9-ethoxy-5-oxobenzo[b][1,8]naphthyridin-10(5H)-yl)acetate], in that order: 20 to 100 µM, “D (“D” > 7° C.)” and more than 50%.
As for `CN(C)c1c(Cl)ccc2c(=O)c3ccc(N(C)CC4CC(F)(F)C4)nc3n(CC(=O)O)c12` [Compound 26, sodium 2-(8-chloro-2-(((3,3-difluorocyclobutyl)methyl) (methyl)amino)-9-(dimethylamino)-5-oxobenzo[b][1,8]naphthyridin-10(5H)-yl)acetate], in assay [1], the IC50 was less than 20 µM. The “WT_DSF_hSWAT Tm Shift (° C.)” value in assay [2] is reported as “D (“D” > 7° C.)”. In assay [3], the Emax is more than 50%.
For `CSc1c(Cl)ccc2c(=O)c3ccc(N(C)CC4CCOCC4)nc3n(CC(=O)O)c12` [Compound 27, 2-(8-chloro-2-(methyl((tetrahydro-2H-pyran-4-yl)methyl)amino)-9-(methylthio)-5-oxobenzo[b][1,8]naphthyridin-10(5H)-yl)acetic acid], in that order: 20 to 100 µM, “D (“D” > 7° C.)” and more than 50%.
For `COCCN(c1ccc2c(=O)c3ccc(Cl)c(SC)c3n(CC(=O)O)c2n1)C1CC1` [Compound 28, sodium 2-(8-chloro-2-(cyclopropyl(2-methoxyethyl)amino)-9-(methylthio)-5-oxobenzo[b][1,8]naphthyridin-10(5H)-yl)acetate], in that order: less than 20 µM, “D (“D” > 7° C.)” and more than 50%.
For `CCOc1c(Cl)ccc2c(=O)c3ccc(N(CCOC)C4CC4)nc3n(CC(=O)O)c12` [Compound 29, sodium 2-(8-chloro-2-(cyclopropyl(2-methoxyethyl)amino)-9-ethoxy-5-oxobenzo[b][1,8]naphthyridin-10(5H)-yl)acetate], in that order: 20 to 100 µM, “D (“D” > 7° C.)” and more than 50%.
As for `CCN(c1ccc2c(=O)c3ccc(Cl)c(SC)c3n(CC(=O)O)c2n1)C1COC1` [Compound 30, sodium 2-(8-chloro-2-(ethyl(oxetan-3-yl)amino)-9-(methylthio)-5-oxobenzo[b][1,8]naphthyridin-10(5H)-yl)acetate], the IC50 in assay [1] is less than 20 µM. Further, in assay [2], the “WT_DSF_hSWAT Tm Shift (° C.)” value is recorded as “D (“D” > 7° C.)”. Also, in assay [3], the Emax is more than 50%.
For `CCOc1c(Cl)ccc2c(=O)c3ccc(C(C)=O)nc3n(CC(=O)O)c12` [Compound 31, sodium 2-(2-acetyl-8-chloro-9-ethoxy-5-oxobenzo[b][1,8]naphthyridin-10(5H)-yl)acetate], in that order: 100 to 300 µM, “C (“C” = 2-7° C.)” and more than 50%.
For `CSc1c(Cl)ccc2c(=O)c3ccc(C(C)=O)nc3n(CC(=O)O)c12` [Compound 32, sodium 2-(2-acetyl-8-chloro-9-(methylthio)-5-oxobenzo[b][1,8]naphthyridin-10(5H)-yl)acetate] the same measures were 100 to 300 µM, “C (“C” = 2-7° C.)” and more than 50%.
For `CCOc1c(Cl)ccc2c(=O)c3ccc(N(C)CC4CCOCC4)nc3n(CC(=O)O)c12` [Compound 33, 2-(8-chloro-9-ethoxy-2-(methyl((tetrahydro-2H-pyran-4-yl)methyl)amino)-5-oxobenzo[b][1,8]naphthyridin-10(5H)-yl)acetic acid], in that order: 20 to 100 µM, “D (“D” > 7° C.)” and more than 50%.
As for `CSc1c(Cl)ccc2c(=O)c3ccc(N(C)CCS(C)(=O)=O)nc3n(CC(=O)O)c12` [Compound 34, Sodium 2-{8-chloro-2-[(2-methanesulfonylethyl)(methyl)amino]-9-(methylsulfanyl)-5-oxobenzo[b]1,8-naphthyridin-10-yl}acetate], the IC50 in assay [1] was 20 to 100 µM. Besides, the “WT_DSF_hSWAT Tm Shift (° C.)” value in assay [2] is given as “D (“D” > 7° C.)”. Moreover, in assay [3], the Emax fell in the range of 25 to 50%.
With `CSc1c(Cl)ccc2c(=O)c3ccc(N(C)CCS(=O)(=O)C(C)C)nc3n(CC(=O)O)c12` [Compound 35, sodium 2-(8-chloro-2-{methyl[2-(propane-2-sulfonyl)ethyl]amino}-9-(methylsulfanyl)-5-oxobenzo[b]1,8-naphthyridin-10-yl)acetate], the IC50 in assay [1] lay within 20 to 100 µM. In addition, the “WT_DSF_hSWAT Tm Shift (° C.)” value in assay [2] is listed as “D (“D” > 7° C.)”. Moreover, in assay [3], the Emax is more than 50%.
For `CSc1c(Cl)ccc2c(=O)c3ccc(N(C)CC4CC(F)(F)C4)nc3n(CC(=O)O)c12` [Compound 36, Sodium 2-(8-chloro-2-(((3,3-difluorocyclobutyl)methyl)(methyl)amino)-9-(methylthio)-5-oxobenzo[b][1,8]naphthyridin-10(5H)-yl)acetate], in that order: 20 to 100 µM, “D (“D” > 7° C.)” and more than 50%.

Usually IC50 stands for the point on the concentration scale where inhibition reaches its midpoint.
